Like-named read-outs stand apart in the source and are kept apart here.
What was measured:
[1] = biological target: T1, HCV NS5B (Hepatitis C virus genotype 1b, UniProt Q9WMX2); assay: HCV NS5B RdRp enzyme assay (standard / modified); type: biochemical
T1 construct: The protein was expressed with an 18 amino acid C-terminal truncation to enhance the solubility; made in house; host or cells: E. coli BL21 (DE3)
How it was run: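 SPA detection of 3H-UTP (0.29 μM) incorporation by C-terminally truncated (18 aa) genotype 1b NS5B from E. coli, on polyA/biotin-oligo-dT12 at 30° C, pH 7.5 Hepes, 2% DMSO. Modified format: 14 nM enzyme, 0.2 nM template, 20 nM primer prebound to beads, 4 h; standard: 28 nM, 6 nM, 180 nM free primer, 60 min. Seven-point IC50 fit.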

[2] = test system: HCV replicon cells; assay: HCV replicon FRET / luciferase assay; type: cell-based; settings: Hepatitis C virus
How it was run: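 Percent activity is background-subtracted signal relative to untreated cell wells, with background taken from maximal protease-inhibitor wells. Cytotoxicity is Alamar blue fluorescence relative to controls. Replicon inhibition was read by NS3 FRET peptide cleavage (340/490 nm) or luciferase.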

[3] = HCV RdRp genotype 1b enzyme, read-out: IC50
[4] = HCV replicon cells, FRET or luciferase readout, read-out: EC50

T1 sequence (Q9WMX2 2420-2992): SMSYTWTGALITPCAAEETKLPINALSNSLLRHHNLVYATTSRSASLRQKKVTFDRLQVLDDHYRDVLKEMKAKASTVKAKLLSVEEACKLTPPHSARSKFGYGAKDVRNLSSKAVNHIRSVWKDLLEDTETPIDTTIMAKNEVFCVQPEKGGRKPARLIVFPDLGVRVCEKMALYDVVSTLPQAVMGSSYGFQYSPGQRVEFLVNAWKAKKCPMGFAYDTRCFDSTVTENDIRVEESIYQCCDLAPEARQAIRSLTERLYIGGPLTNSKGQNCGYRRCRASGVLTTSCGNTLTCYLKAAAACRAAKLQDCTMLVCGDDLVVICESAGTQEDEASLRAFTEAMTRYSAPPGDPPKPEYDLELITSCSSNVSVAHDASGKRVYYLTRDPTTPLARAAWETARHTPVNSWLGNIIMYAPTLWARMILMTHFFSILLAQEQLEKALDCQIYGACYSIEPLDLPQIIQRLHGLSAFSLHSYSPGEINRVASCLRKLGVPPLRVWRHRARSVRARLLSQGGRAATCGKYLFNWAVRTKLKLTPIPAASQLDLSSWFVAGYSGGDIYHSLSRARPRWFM

Structure (SMILES)	IC50 [1, 3] [µM]	EC50 [2, 4] [µM]	IC50 [1] [µM]	EC50 [2] [µM]
COc1ccc2c(c1)C=C(c1c(C(=O)N3CC(C)N(C)C(C)C3)cnn1C(C)C)Cn1c-2c(C2CCCCC2)c2ccc(C(=O)NS(=O)(=O)C(C)C)cc21 (centres unmarked)	0.001 to 0.5	0.001 to 0.5		
COc1ccc2c(c1)C=C(c1c(C(=O)N3C4CCC3CN(C)C4)cnn1C)Cn1c-2c(C2CCCCC2)c2ccc(C(=O)NS(=O)(=O)N3CCCC3)cc21			0.001 to 0.5	0.001 to 0.5
COc1ccc2c(c1)C=C(c1c(C(=O)N3[C@@H]4CC[C@H]3CN(C)C4)cnn1C)Cn1c-2c(C2CCCCC2)c2ccc(C(=O)NS(=O)(=O)N3CCOCC3)cc21			0.001 to 0.5	0.001 to 0.5
COc1ccc2c(c1)C=C(c1c(C(=O)N3[C@@H]4CC[C@H]3C[C@@](C)(O)C4)cnn1C(C)C)Cn1c-2c(C2CCCCC2)c2ccc(C(=O)NS(=O)(=O)CC(C)C)cc21			0.001 to 0.5	0.001 to 0.5
CCOC(=O)c1cnn(C)c1C1=Cc2cc(OC)ccc2-c2c(C3CCCCC3)c3ccc(C(=O)NS(=O)(=O)C(C)C)cc3n2C1	0.001 to 0.5	0.001 to 0.5		
COc1ccc2c(c1)C=C(c1c(C(=O)N3C[C@@H]4C[C@H]3CO4)cnn1CC(F)(F)F)Cn1c-2c(C2CCCCC2)c2ccc(C(=O)NS(=O)(=O)C(C)C)cc21	0.001 to 0.5	0.001 to 0.5		
COc1ccc2c(c1)C=C(c1c(C(=O)N3CCOCC3)cnn1CC(F)(F)F)Cn1c-2c(C2CCCCC2)c2ccc(C(=O)NS(=O)(=O)C(C)C)cc21	0.001 to 0.5	0.001 to 0.5		
COC[C@@H]1CN(C(=O)c2cnn(C)c2C2=Cc3cc(OC)ccc3-c3c(C4CCCCC4)c4ccc(C(=O)NS(=O)(=O)N5CCOCC5)cc4n3C2)CCO1	0.001 to 0.5	0.001 to 0.5		
COc1ccc2c(c1)C=C(c1c(C(=O)N3CCOCC3)cnn1C(C)C)Cn1c-2c(C2CCCCC2)c2ccc(C(=O)NS(=O)(=O)CC(C)C)cc21	0.001 to 0.5	0.001 to 0.5		
COc1ccc2c(c1)C=C(c1c(C(=O)N3C4CCC3CN(C)C4)cnn1C(C)C)Cn1c-2c(C2CCCCC2)c2ccc(C(=O)NS(=O)(=O)C(C)C)cc21			0.001 to 0.5	0.001 to 0.5
CCN1C[C@@H]2C[C@H]1CN2C(=O)c1cnn(C)c1C1=Cc2cc(OC)ccc2-c2c(C3CCCCC3)c3ccc(C(=O)NS(=O)(=O)N4CCOCC4)cc3n2C1	0.001 to 0.5	0.001 to 0.5		
CCC(C)S(=O)(=O)NC(=O)c1ccc2c(C3CCCCC3)c3n(c2c1)CC(c1c(C(=O)N2CCCC(N(C)C)C2)cnn1C)=Cc1cc(OC)ccc1-3 (centres unmarked)	0.001 to 0.5	0.001 to 0.5		
COc1ccc2c(c1)C=C(c1c(C(=O)N3C4CC3CN(C)C4)cnn1C(C)C)Cn1c-2c(C2CCCCC2)c2ccc(C(=O)NS(=O)(=O)C(C)C)cc21	0.001 to 0.5	0.001 to 0.5		
CCN1C[C@@H]2C[C@H]1CN2C(=O)c1cnn(CC(F)(F)F)c1C1=Cc2cc(OC)ccc2-c2c(C3CCCCC3)c3ccc(C(=O)NS(=O)(=O)C(C)C)cc3n2C1	0.001 to 0.5	0.001 to 0.5		
COc1ccc2c(c1)C=C(c1c(C(=O)N3CCN(C(C)C)CC3)cnn1C)Cn1c-2c(C2CCCCC2)c2ccc(C(=O)NS(=O)(=O)C(C)C)cc21	0.001 to 0.5	0.001 to 0.5		
CCC(C)S(=O)(=O)NC(=O)c1ccc2c(C3CCCCC3)c3n(c2c1)CC(c1c(C(=O)N2CCOCC2)cnn1C)=Cc1cc(OC)ccc1-3 (centres unmarked)	0.001 to 0.5	0.001 to 0.5		
CCn1nc(C)c(C(=O)N2CC3CCC(C2)N3C)c1C1=Cc2cc(OC)ccc2-c2c(C3CCCCC3)c3ccc(C(=O)NS(=O)(=O)C(C)C)cc3n2C1			0.001 to 0.5	0.001 to 0.5
COc1ccc2c(c1)C=C(c1c(C(=O)N3CCOCC3)cnn1C)Cn1c-2c(C2CCCCC2)c2ccc(C(=O)O)cc21	0.001 to 0.5	0.001 to 0.5		
CCC(C)S(=O)(=O)NC(=O)c1ccc2c(C3CCCCC3)c3n(c2c1)CC(c1c(C(=O)N2CCOC(COC)C2)cnn1C)=Cc1cc(OC)ccc1-3 (centres unmarked)	0.001 to 0.5	0.001 to 0.5		

Structure (SMILES)	IC50 [1, 3] [µM]	EC50 [2, 4] [µM]	IC50 [1] [µM]	EC50 [2] [µM]
COc1ccc2c(c1)C=C(c1c(C(=O)N3C4CCCC3COC4)cnn1C)Cn1c-2c(C2CCCCC2)c2ccc(C(=O)NS(=O)(=O)CC(C)C)cc21			0.001 to 0.5	0.001 to 0.5
COc1ccc2c(c1)C=C(c1c(C(=O)N3CC4CCC(C3)O4)cnn1C)Cn1c-2c(C2CCCCC2)c2ccc(C(=O)NS(=O)(=O)C(C)C)cc21	< 0.02	0.001 to 0.5		
COc1ccc2c(c1)C=C(c1c(C(=O)N(C)C3CCN(C)C3)cnn1C)Cn1c-2c(C2CCCCC2)c2ccc(C(=O)NS(=O)(=O)N3CCOCC3)cc21 (centres unmarked)	0.001 to 0.5	0.001 to 0.5		
COc1ccc2c(c1)C=C(c1c(C(=O)N3[C@@H]4CC[C@H]3C[C@@](C)(O)C4)cnn1C(C)C)Cn1c-2c(C2CCCCC2)c2ccc(C(=O)NS(=O)(=O)C(C)C)cc21			0.001 to 0.5	0.001 to 0.5
COc1ccc2c(c1)C=C(c1c(C(=O)N3C4CCC3CC(C)(O)C4)cnn1CC(F)(F)F)Cn1c-2c(C2CCCCC2)c2ccc(C(=O)NS(=O)(=O)C(C)C)cc21 (centres unmarked)			0.001 to 0.5	0.001 to 0.5
COc1ccc2c(c1)C=C(c1c(C(=O)N3CCOCC3)c(C)nn1C)Cn1c-2c(C2CCCCC2)c2ccc(C(=O)NS(=O)(=O)CC(C)C)cc21	0.001 to 0.5	0.001 to 0.5		
COc1ccc2c(c1)C=C(c1c(C(=O)N3CCOCC3)cnn1C1CC1)Cn1c-2c(C2CCCCC2)c2ccc(C(=O)NS(=O)(=O)C(C)C)cc21	0.001 to 0.5	0.001 to 0.5		
COc1ccc2c(c1)C=C(c1c(C(=O)N3C4CCC3CN(C)C4)cnn1C)Cn1c-2c(C2CCCCC2)c2ccc(C(=O)NS(=O)(=O)C3CC3)cc21			0.001 to 0.5	0.001 to 0.5
COc1ccc2c(c1)C=C(c1c(C(=O)N3C4C=C(C)CC3CC4)cnn1C(C)C)Cn1c-2c(C2CCCCC2)c2ccc(C(=O)NS(=O)(=O)CC(C)C)cc21 (centres unmarked)			0.001 to 0.5	0.001 to 0.5
COc1ccc2c(c1)C=C(c1c(C(=O)N3CCC(N(C)C)C3)cnn1C)Cn1c-2c(C2CCCCC2)c2ccc(C(=O)NS(=O)(=O)N3CCOCC3)cc21 (centres unmarked)	0.001 to 0.5	0.001 to 0.5		
COc1ccc2c(c1)C=C(c1c(C(=O)O)c(C)nn1C)Cn1c-2c(C2CCCCC2)c2ccc(C(=O)NS(=O)(=O)CC(C)C)cc21	0.001 to 0.5	> 0.04		
CCC(C)S(=O)(=O)NC(=O)c1ccc2c(C3CCCCC3)c3n(c2c1)CC(c1c(C(=O)N2C[C@@H](C)O[C@@H](C)C2)cnn1C)=Cc1cc(OC)ccc1-3 (some centres unmarked)	0.001 to 0.5	0.001 to 0.5		
COc1ccc2c(c1)C=C(c1c(C(=O)N(C)CCN(C)C)cnn1C)Cn1c-2c(C2CCCCC2)c2ccc(C(=O)NS(=O)(=O)N3CCOCC3)cc21	0.001 to 0.5	0.001 to 0.5		
COc1ccc2c(c1)C=C(c1c(C(=O)O)ccn1C(C)C)Cn1c-2c(C2CCCCC2)c2ccc(C(=O)NS(=O)(=O)C(C)C)cc21	0.001 to 0.5	> 0.5		
CCN1C[C@@H]2C[C@H]1CN2C(=O)c1c(C)nn(CC)c1C1=Cc2cc(OC)ccc2-c2c(C3CCCCC3)c3ccc(C(=O)NS(=O)(=O)C(C)C)cc3n2C1	0.001 to 0.5	0.001 to 0.5		
COc1ccc2c(c1)C=C(c1c(C(=O)N3CCN(C)CC3)c(C)nn1C(C)C)Cn1c-2c(C2CCCCC2)c2ccc(C(=O)NS(=O)(=O)C(C)C)cc21	0.001 to 0.5	0.001 to 0.5		
CCn1ncc(C(=O)N2CCN(C)CC2)c1C1=Cc2cc(OC)ccc2-c2c(C3CCCCC3)c3ccc(C(=O)NS(=O)(=O)N4CCCC4)cc3n2C1	0.001 to 0.5	0.001 to 0.5		
COc1ccc2c(c1)C=C(c1c(C(=O)N3CCOCC3)ccn1C(C)C)Cn1c-2c(C2CCCCC2)c2ccc(C(=O)NS(=O)(=O)C(C)C)cc21	0.001 to 0.5	0.001 to 0.5		

Source: patent US8143243B2, “Compounds for the treatment of hepatitis C” (Bristol-Myers Squibb Company, priority 2007, dated 2012)
